≈ marks a conversion by molar mass, not a printed value. Where “and” joins values, the source holds several entries; their conditions need not be identical. Identical values can stand only once.
How the values were obtained:
[1] = target: Tyrosine-protein kinase Lck (Homo sapiens, UniProt P06239); assay: Inhibition of LCK (unknown origin)
physchem = settings: aqueous phosphate buffer, pH 7.4, Kinetic_solubility
Description: Kinetic solubility of the compound in aqueous phosphate buffer at pH 7.4 after 24 hrs by HPLC/CLND method

[2] = Cytotoxicity against human Jurkat T cells without TCR stimulation assessed as cell viability by ATPlite assay
[3] = 1-octanol-phosphate buffer partition coefficient, log D of the compound at pH 7.4 by UPLC/MS/MS analysis
Hepatocyte = assay: Cytotoxicity against hepatocytes (unknown origin)
[4] = Permeability in MDCK cells; format: ADME, cell-based, Canis lupus familiaris; settings: dog, read-out: permeability
hERG (KCNH2) = hERG (KCNH2) (Homo sapiens, UniProt Q12809); assay: Inhibition of human ERG at 10 uM by patch clamp assay relative to control
Chain of hERG (KCNH2) (Q12809 whole entry): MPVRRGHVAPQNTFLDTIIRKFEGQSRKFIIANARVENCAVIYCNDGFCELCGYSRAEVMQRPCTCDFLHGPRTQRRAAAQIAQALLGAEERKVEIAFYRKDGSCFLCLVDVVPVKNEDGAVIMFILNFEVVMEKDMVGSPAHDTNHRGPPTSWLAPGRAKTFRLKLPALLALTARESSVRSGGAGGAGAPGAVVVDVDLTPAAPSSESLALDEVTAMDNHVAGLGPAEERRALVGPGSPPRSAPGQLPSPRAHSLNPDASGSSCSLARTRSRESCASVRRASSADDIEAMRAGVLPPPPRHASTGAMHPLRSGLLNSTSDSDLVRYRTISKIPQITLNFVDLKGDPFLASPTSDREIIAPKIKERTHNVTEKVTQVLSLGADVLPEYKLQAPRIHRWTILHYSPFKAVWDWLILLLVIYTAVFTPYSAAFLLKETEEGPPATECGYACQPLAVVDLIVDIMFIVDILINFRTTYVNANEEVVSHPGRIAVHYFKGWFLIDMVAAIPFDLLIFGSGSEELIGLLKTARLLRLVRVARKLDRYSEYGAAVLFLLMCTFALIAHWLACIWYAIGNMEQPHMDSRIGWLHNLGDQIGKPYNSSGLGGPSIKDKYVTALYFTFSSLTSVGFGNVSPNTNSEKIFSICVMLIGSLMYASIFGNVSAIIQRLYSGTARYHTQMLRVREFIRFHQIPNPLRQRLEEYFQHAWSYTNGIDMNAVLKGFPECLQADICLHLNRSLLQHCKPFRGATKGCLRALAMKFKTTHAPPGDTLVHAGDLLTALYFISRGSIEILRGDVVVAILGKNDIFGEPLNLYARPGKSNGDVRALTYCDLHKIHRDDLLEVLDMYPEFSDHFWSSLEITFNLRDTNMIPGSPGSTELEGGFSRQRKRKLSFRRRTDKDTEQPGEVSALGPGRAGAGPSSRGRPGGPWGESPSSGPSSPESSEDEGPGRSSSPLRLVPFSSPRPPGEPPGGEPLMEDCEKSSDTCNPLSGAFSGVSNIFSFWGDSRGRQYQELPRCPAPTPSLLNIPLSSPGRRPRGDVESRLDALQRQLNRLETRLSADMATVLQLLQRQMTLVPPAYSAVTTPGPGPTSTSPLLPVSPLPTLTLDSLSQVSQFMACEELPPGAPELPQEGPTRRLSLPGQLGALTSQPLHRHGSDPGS

[5] = Plasma protein binding in human; format: ADME, cell-free; settings: read-out: PPB (converted)
Homo sapiens [6] = organism: Homo sapiens; assay: Selectivity ratio of Ki for LCK (unknown origin) to Ki for GST-tagged recombinant full length human ITK
Mus musculus [7] = assay: Reduction in serum IL-2 level in ip dosed C57/Bl6 mouse administered for 1 hr followed by anti-CD3 treatment measured after 1.5 hrs; format: functional, organism-based
Mus musculus [8] = assay: Reduction in serum IL-2 level in C57/Bl6 mouse at 30 mg/kg, ip administered for 1 hr followed by anti-CD3 treatment measured after 1.5 hrs relative to vehicle-treated control; format: functional; design: scale not given: the % may be the effect or the level left; settings: route intraperitoneal
[9] = Plasma concentration in C57/Bl6 mouse at 200 mg/kg, ip administered for 1 hr followed by anti-CD3 treatment measured at 2.5 hrs; format: ADME, organism-based; design: dose 200 mg/kg, route intraperitoneal
Mus musculus [10] = assay: Reduction in serum IL-13 level in C57/Bl6 mouse at 100 mg/kg, ip administered for 1 hr followed by anti-CD3 treatment measured after 1.5 hrs relative to vehicle-treated control; format: functional; design: scale not given: the % may be the effect or the level left; settings: route intraperitoneal
Mus musculus [11] = assay: Reduction in serum IL-13 level in C57/Bl6 mouse at 30 mg/kg, ip administered for 1 hr followed by anti-CD3 treatment measured after 1.5 hrs relative to vehicle-treated control; format: functional; design: scale not given: the % may be the effect or the level left; settings: route intraperitoneal
Mus musculus [12] = assay: Reduction in serum IL-13 level in C57/Bl6 mouse at 200 mg/kg, ip administered for 1 hr followed by anti-CD3 treatment measured after 1.5 hrs relative to vehicle-treated control; format: functional; design: scale not given: the % may be the effect or the level left; settings: route intraperitoneal
Mus musculus [13] = assay: Reduction in serum IL-2 level in C57/Bl6 mouse at 100 mg/kg, ip administered for 1 hr followed by anti-CD3 treatment measured after 1.5 hrs relative to vehicle-treated control; format: functional; design: scale not given: the % may be the effect or the level left; settings: route intraperitoneal
Mus musculus [14] = assay: Reduction in serum IL-2 level in C57/Bl6 mouse at 200 mg/kg, ip administered for 1 hr followed by anti-CD3 treatment measured after 1.5 hrs relative to vehicle-treated control; format: functional; settings: route intraperitoneal
Homo sapiens [15] = organism: Homo sapiens; assay: Binding affinity to L-type calcium channel verapamil binding site (unknown origin) assessed as protein-compound complex at 10 uM relative to control
[16] = target: D(2) dopamine receptor (Homo sapiens) (UniProt P14416); assay: Binding affinity to human dopamine D2S receptor assessed as protein-compound complex at 10 uM relative to control
Chain of D(2) dopamine receptor (Homo sapiens) (P14416 whole entry): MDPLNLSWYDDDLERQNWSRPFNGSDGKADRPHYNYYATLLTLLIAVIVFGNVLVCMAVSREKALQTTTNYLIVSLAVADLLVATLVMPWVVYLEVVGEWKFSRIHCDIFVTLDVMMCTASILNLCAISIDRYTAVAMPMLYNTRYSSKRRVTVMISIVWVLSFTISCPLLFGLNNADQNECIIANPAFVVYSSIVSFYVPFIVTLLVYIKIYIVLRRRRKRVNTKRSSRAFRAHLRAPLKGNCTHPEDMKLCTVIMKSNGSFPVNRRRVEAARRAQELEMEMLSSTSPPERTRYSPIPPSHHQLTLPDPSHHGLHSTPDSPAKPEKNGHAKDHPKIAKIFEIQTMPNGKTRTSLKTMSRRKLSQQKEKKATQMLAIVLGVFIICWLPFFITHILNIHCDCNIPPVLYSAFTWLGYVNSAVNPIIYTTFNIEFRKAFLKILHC

[17] = target: 5-hydroxytryptamine receptor 2A (Homo sapiens) (UniProt P28223); assay: Binding affinity to human 5HT-2A receptor assessed as protein-compound complex at 10 uM relative to control
Chain of 5-hydroxytryptamine receptor 2A (Homo sapiens) (P28223 whole entry): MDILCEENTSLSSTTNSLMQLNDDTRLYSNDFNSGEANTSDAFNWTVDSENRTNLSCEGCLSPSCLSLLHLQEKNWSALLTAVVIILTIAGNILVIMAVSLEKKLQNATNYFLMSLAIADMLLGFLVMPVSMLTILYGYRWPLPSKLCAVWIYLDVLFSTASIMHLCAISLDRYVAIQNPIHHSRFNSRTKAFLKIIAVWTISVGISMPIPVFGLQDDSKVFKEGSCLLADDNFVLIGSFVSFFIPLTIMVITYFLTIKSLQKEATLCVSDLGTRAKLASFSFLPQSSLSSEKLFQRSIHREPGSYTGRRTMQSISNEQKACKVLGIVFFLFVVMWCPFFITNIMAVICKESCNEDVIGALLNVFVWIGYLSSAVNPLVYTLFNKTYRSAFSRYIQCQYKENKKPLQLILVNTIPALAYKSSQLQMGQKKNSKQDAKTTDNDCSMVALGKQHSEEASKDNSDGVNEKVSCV

[18] = target: Sodium-dependent serotonin transporter (Homo sapiens) (UniProt P31645); assay: Binding affinity to human 5-HT transporter assessed as protein-compound complex at 10 uM relative to control
Chain of Sodium-dependent serotonin transporter (Homo sapiens) (P31645 whole entry, looked up): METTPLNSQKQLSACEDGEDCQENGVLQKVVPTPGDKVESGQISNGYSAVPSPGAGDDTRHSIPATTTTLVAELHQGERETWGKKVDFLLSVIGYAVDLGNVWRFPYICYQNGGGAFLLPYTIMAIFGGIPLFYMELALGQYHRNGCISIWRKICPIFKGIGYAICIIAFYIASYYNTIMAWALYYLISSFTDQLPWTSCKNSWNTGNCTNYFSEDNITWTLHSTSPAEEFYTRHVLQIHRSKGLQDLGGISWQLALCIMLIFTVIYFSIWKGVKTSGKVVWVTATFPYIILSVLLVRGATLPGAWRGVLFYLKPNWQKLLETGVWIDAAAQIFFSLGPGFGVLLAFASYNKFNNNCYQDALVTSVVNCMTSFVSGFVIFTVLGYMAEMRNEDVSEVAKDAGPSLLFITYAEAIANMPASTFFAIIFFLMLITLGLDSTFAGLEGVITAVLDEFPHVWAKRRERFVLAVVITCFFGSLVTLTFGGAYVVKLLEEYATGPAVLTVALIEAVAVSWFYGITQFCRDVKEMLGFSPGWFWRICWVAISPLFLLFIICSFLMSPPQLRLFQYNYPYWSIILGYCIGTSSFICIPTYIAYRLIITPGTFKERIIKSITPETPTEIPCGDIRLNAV

[19] = target: D(1A) dopamine receptor (Homo sapiens) (UniProt P21728); assay: Binding affinity to human dopamine D1 receptor assessed as protein-compound complex at 10 uM relative to control
Chain of D(1A) dopamine receptor (Homo sapiens) (P21728 whole entry): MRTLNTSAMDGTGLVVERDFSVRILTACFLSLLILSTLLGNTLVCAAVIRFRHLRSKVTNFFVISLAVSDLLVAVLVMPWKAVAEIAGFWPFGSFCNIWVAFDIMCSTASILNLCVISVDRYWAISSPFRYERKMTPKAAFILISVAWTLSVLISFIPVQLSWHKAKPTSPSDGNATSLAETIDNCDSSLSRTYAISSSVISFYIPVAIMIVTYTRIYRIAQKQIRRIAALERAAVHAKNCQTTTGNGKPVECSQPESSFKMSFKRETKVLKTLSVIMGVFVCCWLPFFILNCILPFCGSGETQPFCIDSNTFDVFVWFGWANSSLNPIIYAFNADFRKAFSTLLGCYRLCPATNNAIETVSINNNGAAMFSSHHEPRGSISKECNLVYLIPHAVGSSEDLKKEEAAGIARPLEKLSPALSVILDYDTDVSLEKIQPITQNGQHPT

Chain of Tyrosine-protein kinase Lck (P06239 whole entry): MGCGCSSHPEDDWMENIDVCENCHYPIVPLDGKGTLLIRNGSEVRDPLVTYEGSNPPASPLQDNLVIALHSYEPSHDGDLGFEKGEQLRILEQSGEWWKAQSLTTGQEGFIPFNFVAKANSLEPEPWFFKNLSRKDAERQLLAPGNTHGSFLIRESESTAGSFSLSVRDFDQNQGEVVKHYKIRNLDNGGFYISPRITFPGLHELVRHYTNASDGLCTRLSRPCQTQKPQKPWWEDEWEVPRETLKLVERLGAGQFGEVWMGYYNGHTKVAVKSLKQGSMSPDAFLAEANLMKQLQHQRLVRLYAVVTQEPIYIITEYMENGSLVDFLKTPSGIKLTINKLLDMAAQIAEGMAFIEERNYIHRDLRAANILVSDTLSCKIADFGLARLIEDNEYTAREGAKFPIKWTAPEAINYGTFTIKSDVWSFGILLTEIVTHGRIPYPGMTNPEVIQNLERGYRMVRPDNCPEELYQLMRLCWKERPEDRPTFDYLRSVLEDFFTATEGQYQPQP

Compound	Ki [1]	solubility kinetic at 24 h (physchem)	IC50 ([2]; Homo sapiens, Jurkat)	IC50 ([2]; jurkat)	IC50 (Hepatocyte)	inhibition at 10 µM (hERG (KCNH2))	further results
CC1(C)CCc2c(C(=O)Nc3cnn([C@@H](CS(C)(=O)=O)c4ccccc4)c3)n[nH]c2C1	> 2.5 µM	4.5 µM (≈ 1.99 µg/mL)	42 µM	–	–	–	–
CC1(C)CCc2c(C(=O)Nc3cnn([C@H](c4ccccc4)C4CCCCS4(=O)=O)c3)n[nH]c2C1 (stereo partly specified)	–	10 µM (≈ 4.82 µg/mL)	> 50 µM	33 µM	–	–	–
CC1(C)CCc2c(C(=O)Nc3cnn(Cc4ccccc4)c3)n[nH]c2C1	1.8 µM	–	–	–	–	–	–
CC1(C)CCc2c(C(=O)Nc3cnn([C@H](c4ccccc4)C4CCS(=O)(=O)C4)c3)n[nH]c2C1 (stereo partly specified)	–	–	27 µM	> 50 µM	–	–	–
C[C@@]12Cc3[nH]nc(C(=O)Nc4cnn([C@H](c5ccccc5)[C@H]5CCCCS5(=O)=O)c4)c3C[C@@H]1C2(F)F	–	3.9 µM (≈ 2.01 µg/mL)	12 µM	–	> 100 µM	6.8%	logD [3]: 2.8; Papp [4]: 1.5 ×10⁻⁶ cm/s; fraction unbound [5]: 0.03
C[C@@]12Cc3[nH]nc(C(=O)Nc4cnn([C@H](c5ccccc5)C5CCS(=O)(=O)CC5)c4)c3C[C@@H]1C2	–	6.5 µM (≈ 3.12 µg/mL)	29 µM	–	> 100 µM	34%	logD [3]: 3.5; Papp [4]: 4.4 ×10⁻⁶ cm/s; fraction unbound [5]: 0.03
CC1(C)CCc2c(C(=O)Nc3cnn([C@H](c4ccccc4)C4CCCS(=O)(=O)C4)c3)n[nH]c2C1 (stereo partly specified)	–	11 µM (≈ 5.3 µg/mL)	–	44 µM and 20 µM	–	–	–
CC1(C)CCc2c(C(=O)Nc3cnn([C@@H](CCS(C)(=O)=O)c4ccccc4)c3)n[nH]c2C1	1.8 µM	–	57 µM	–	–	–	Ratio Ki (Homo sapiens [6]): 290
CC1(C)CCc2c(C(=O)Nc3cnn([C@H](c4ccccc4)C4CC[S+]([O-])CC4)c3)n[nH]c2C1 (stereo partly specified)	–	45 µM (≈ 21 µg/mL)	20 µM	30 µM	83 µM	3.6%	Activity (Mus musculus [7]): Dose-dependent effect; logD [3]: 3.6; Activity (Mus musculus [8]): 55%; concentration at 2.5 h [9]: 80 µM; Activity (Mus musculus [10]): 95%; Activity (Mus musculus [11]): 62%; Activity (Mus musculus [12]): 100%; Activity (Mus musculus [13]): 90%; Papp [4]: 1.9 ×10⁻⁶ cm/s; %max (Mus musculus [14]): 98%; fraction unbound [5]: 0.06
CC1(C)CCc2c(C(=O)Nc3cnn([C@H](c4ccccc4)C4CCS(=O)(=O)CC4)c3)n[nH]c2C1	–	4.3 µM (≈ 2.07 µg/mL)	29 µM	–	–	–	–
CN(C)CC[C@@H](c1ccccc1)n1cc(NC(=O)c2n[nH]c3c2CCC(C)(C)C3)cn1	0.34 µM	–	4.7 µM	–	6.2 µM	88%	Activity (Homo sapiens [15]): 88%; Activity [16]: 96%; Activity [17]: 96%; Activity [18]: 102%; Activity [19]: 96%
CC12Cc3[nH]nc(C(=O)Nc4cnn(Cc5ccccc5)c4)c3CC1C2 (stereo unspecified)	1.4 µM	–	–	–	–	–	–

Source: ChEMBL document CHEMBL3425442, “Tetrahydroindazoles as Interleukin-2 Inducible T-Cell Kinase Inhibitors. Part II. Second-Generation Analogues with Enhanced Potency, Selectivity, and Pharmacodynamic Modulation in Vivo” (J Med Chem, 2015)
